Data set [1] has as its system human leukemia cell line CCRF-CEM. As to the kind of experiment: Induction of the reduction of telomere in cell system (Test Example 4). The class given is cell-based. Here is the method:
After a test compound was. allowed to contact with human leukemia cell line CCRF-CEM for 21 days, a chromosomal DNA was extracted and the telomere length was measured by a known method (Biotechniques, 23: 476-484 (1997)). That is, the extracted chromosomal DNA was adsorbed on a membrane, and hybridization was carried out by using a labeled oligonucleotide probe having a sequence complementary to the telomere sequence. The signal of the label on the membrane proportional to the telomere DNA length was detected and digitalized.

Data set [2] has the same test system. As to the kind of experiment: Telomerase inhibitory activity in cell system (Test Example 3, TRAP assay of cell extract). The class given is cell-based. Here is the method:
After a test compound was allowed to contact with human leukemia cell line CCRF-CEM for 7 days, a cell extraction solution was prepared and the enzyme activity was measured by a known method (U.S. Patent 5,629,154). That is, the cell extraction solution was prepared using a buffer solution containing 0.5% CHAPS {3-[(3-cholamidopropyl)dimethylammonio]-1-propanesulfonate}. using the extraction solution, TRAP (Telomeric Repeat Amplification Protocol) assay was carried out (TRAPEZE™ ELISA Telomerase Detection Kit, manufactured by Oncor Co.) Inhibitory ratio was calculated based on the ratio of the enzyme activity in the extraction solution from the cells treated with the test compound relative to the enzyme activity in the extraction solution from the test compound-untreated cells.

[3] abbreviates: contact for 21 days, 2, 4.4 µmol/L.
Setting [4] is: contact for 7 days, 2, 4.4 µmol/L.
Where [5] appears, read: contact for 21 days, 13, 30 µmol/L.
The mark [6] stands for this setting: contact for 7 days, 8.9, 13 µmol/L.

For the compound `C[n+]1ccc(-c2c3nc(c(-c4cc[n+](C)cc4)c4ccc([nH]4)c(-c4cc[n+](C)cc4)c4nc(c(-c5cc[n+](C)cc5)c5ccc2[nH]5)C=C4)C=C3)cc1` [TMPyP4], the cytotoxicity result is listed as “no remarkable cytotoxicity was shown” in data set [1] (setting [3]); “no chromosomal DNA was recovered at higher concentrations because of the cytotoxicity” in data set [1] (contact for 21 days, concentrations higher than 4.4 µmol/L); “no remarkable cytotoxicity was shown” in data set [2] (setting [4]); “no cellular protein was recovered at higher concentrations because of the cytotoxicity” in data set [2] (contact for 7 days, concentrations higher than 4.4 µmol/L). Further, in data set [1] (setting [3]), the telomere reduction result is recorded as “did not induce telomere reduction”. The “inhibition of intracellular telomerase” value in data set [2] (setting [4]) is recorded as “did not inhibit telomerase”.
As for `CC1=C(CCC(=O)O)c2cc3[nH]c(cc4nc(cc5[nH]c(cc1n2)c(CCC(=O)O)c5C)C(C)=C4CCC(=O)O)c(CCC(=O)O)c3C` [Compound 1], in data set [1] (setting [5]), the cytotoxicity entry is given as “no remarkable cytotoxicity was shown” and the telomere reduction entry is recorded as “induced telomere reduction”. In data set [2] (setting [6]), the cytotoxicity result is “no remarkable cytotoxicity was shown” and the “inhibition of intracellular telomerase” value is reported as “inhibited intracellular telomerase”.

For the origin of these results see patent publication EP1145713A1, “TELOMERASE INHIBITORS” (KYOWA HAKKO KOGYO CO., LTD., priority 1999, dated 2000).
